Assay results reported in publication PMC12472637, “Use of TLC and Computational Methods to Determine Lipophilicity Parameters of Selected Neuroleptics: Comparison of Experimental and Theoretical Studies” (Pharmaceuticals, 2025).

What was measured:
[1] = set-up: method as in earlier work; conditions: logP in n-octanol-water, DrugBank; cited from earlier work
[2] = RP-TLC chromatographic parameter of lipophilicity (RMW), Soczewiński–Wachtmeister extrapolation; type: physicochemical; set-up: key: RM = log((1−Rf)/Rf), extrapolated via Soczewiński–Wachtmeister equation
Source text: As part of the continuation of this study, we attempted to use the experimental, i.e., chromatographic method to determine the lipophilicity parameter of five commercially available neuroleptics: fluphenazine, triflupromazine, trifluoperazine, flupentixol and zuclopenthixol. As described in the Materials and Methods Section, we successfully applied thin-layer chromatography in a reverse-phase system (RP-TLC) and various systems containing chromatographic plates: RP-2F254, RP-8F254 and RP-18F254. […] The chromatographic parameter of lipophilicity RMW obtained under these conditions, using Soczewiński-Wachtmeister's equation, is presented in Table 5. […] Sufficient linearity of these relationships was confirmed by a high correlation coefficient (r), significant p-values, a low standard error of estimate and a high Fisher F-distribution value. […] The content of organic modifier varied from 40% to 90% in 5% increments. Five microliters of each sample solution was spotted as separate spots with a 5 mm width. Plates were developed at ambient temperature (20 ± 2 °C) to a distance of 70 mm in a horizontal chamber ([…], Switzerland) and then visualized under UV light (λ = 254 nm). All measurements were performed in triplicate. The mean value of the retardation factor (Rf) of each compound was used to calculate the RM values:(1) […] The characteristic of the obtained linear plots are given in the Supplementary Materials as Tables S2-S6.

[3] = RP-2F254 plates, 1,4-dioxane–TRIS buffer (pH 7.4)
[4] = RP-2F254 plates, acetone–TRIS buffer (pH 7.4)
[5] = RP-2F254 plates, acetonitrile–TRIS buffer (pH 7.4)
[6] = RP-8F254 plates, 1,4-dioxane–TRIS buffer (pH 7.4)
[7] = RP-8F254 plates, acetone–TRIS buffer (pH 7.4)
[8] = RP-8F254 plates, acetonitrile–TRIS buffer (pH 7.4)
[9] = RP-18F254 plates, 1,4-dioxane–TRIS buffer (pH 7.4)
[10] = RP-18F254 plates, acetone–TRIS buffer (pH 7.4)
[11] = RP-18F254 plates, acetonitrile–TRIS buffer (pH 7.4)

Row | SMILES | RMW [2, 3] | RMW [2, 4] | RMW [2, 5] | RMW [2, 6] | RMW [2, 7] | RMW [2, 8] | RMW [2, 9] | RMW [2, 10] | RMW [2, 11] | logPexp [1] | other results
1 | OCCN1CCN(CC/C=C2/c3ccccc3Sc3ccc(C(F)(F)F)cc32)CC1 [Flupentixol, flupentixol] | 2.782 | 2.829 | −0.427 | 2.363 | 2.702 | −1.165 | 2.468 | 2.762 | −1.058 | 4.51 | RMW ([2]; RP-2F254 plates, 1,4-dioxane–TRIS buffer (pH 7.4), listed as flupentixol): 2.782±0.094; RMW ([2]; RP-2F254 plates, acetone–TRIS buffer (pH 7.4), listed as flupentixol): 2.829±0.194; RMW ([2]; RP-2F254 plates, acetonitrile–TRIS buffer (pH 7.4), listed as flupentixol): -0.427±0.153; RMW ([2]; RP-8F254 plates, 1,4-dioxane–TRIS buffer (pH 7.4), listed as flupentixol): 2.363±0.214; RMW ([2]; RP-8F254 plates, acetone–TRIS buffer (pH 7.4), listed as flupentixol): 2.702±0.228; RMW ([2]; RP-8F254 plates, acetonitrile–TRIS buffer (pH 7.4), listed as flupentixol): -1.165±0.108; RMW ([2]; RP-18F254 plates, 1,4-dioxane–TRIS buffer (pH 7.4), listed as flupentixol): 2.468±0.246; RMW ([2]; RP-18F254 plates, acetone–TRIS buffer (pH 7.4), listed as flupentixol): 2.762±0.175; RMW ([2]; RP-18F254 plates, acetonitrile–TRIS buffer (pH 7.4), listed as flupentixol): -1.058±0.077
2 | OCCN1CCN(CCCN2c3ccccc3Sc3ccc(C(F)(F)F)cc32)CC1 [Fluphenazine, fluphenazine] | 2.653 | 2.834 | −0.777 | 2.340 | 2.591 | −1.230 | 2.454 | 2.702 | −0.995 | 4.36 | RMW ([2]; RP-2F254 plates, 1,4-dioxane–TRIS buffer (pH 7.4), listed as fluphenazine): 2.653±0.058; RMW ([2]; RP-2F254 plates, acetone–TRIS buffer (pH 7.4), listed as fluphenazine): 2.834±0.219; RMW ([2]; RP-2F254 plates, acetonitrile–TRIS buffer (pH 7.4), listed as fluphenazine): -0.777±0.074; RMW ([2]; RP-8F254 plates, 1,4-dioxane–TRIS buffer (pH 7.4), listed as fluphenazine): 2.340±0.230; RMW ([2]; RP-8F254 plates, acetone–TRIS buffer (pH 7.4), listed as fluphenazine): 2.591±0.210; RMW ([2]; RP-8F254 plates, acetonitrile–TRIS buffer (pH 7.4), listed as fluphenazine): -1.230±0.164; RMW ([2]; RP-18F254 plates, 1,4-dioxane–TRIS buffer (pH 7.4), listed as fluphenazine): 2.454±0.279; RMW ([2]; RP-18F254 plates, acetone–TRIS buffer (pH 7.4), listed as fluphenazine): 2.702±0.189; RMW ([2]; RP-18F254 plates, acetonitrile–TRIS buffer (pH 7.4), listed as fluphenazine): -0.995±0.098
3 | CN1CCN(CCCN2c3ccccc3Sc3ccc(C(F)(F)F)cc32)CC1 [Trifluoperazine, trifluoperazine] | 3.333 | 3.348 | −0.568 | 2.547 | 2.754 | −1.023 | 2.580 | 2.714 | −0.810 | 5.03 | RMW ([2]; RP-2F254 plates, 1,4-dioxane–TRIS buffer (pH 7.4), listed as trifluoperazine): 3.333±0.328; RMW ([2]; RP-2F254 plates, acetone–TRIS buffer (pH 7.4), listed as trifluoperazine): 3.348±0.250; RMW ([2]; RP-2F254 plates, acetonitrile–TRIS buffer (pH 7.4), listed as trifluoperazine): -0.568±0.088; RMW ([2]; RP-8F254 plates, 1,4-dioxane–TRIS buffer (pH 7.4), listed as trifluoperazine): 2.547±0.277; RMW ([2]; RP-8F254 plates, acetone–TRIS buffer (pH 7.4), listed as trifluoperazine): 2.754±0.209; RMW ([2]; RP-8F254 plates, acetonitrile–TRIS buffer (pH 7.4), listed as trifluoperazine): -1.023±0.082; RMW ([2]; RP-18F254 plates, 1,4-dioxane–TRIS buffer (pH 7.4), listed as trifluoperazine): 2.580±0.271; RMW ([2]; RP-18F254 plates, acetone–TRIS buffer (pH 7.4), listed as trifluoperazine): 2.714±0.200; RMW ([2]; RP-18F254 plates, acetonitrile–TRIS buffer (pH 7.4), listed as trifluoperazine): -0.810±0.074

Second part, led by results:

Row | RMW [2, 3] | RMW [2, 4] | RMW [2, 5] | RMW [2, 6] | RMW [2, 7] | RMW [2, 8] | RMW [2, 9] | RMW [2, 10] | RMW [2, 11] | SMILES | logPexp [1] | other results
4 | 2.459 | 2.529 | 0.582±0.089 | 1.981 | 2.206 | −1.206 | 2.110 | 2.218 | 2.411 | OCCN1CCN(CC/C=C2/c3ccccc3Sc3ccc(Cl)cc32)CC1 [Zuclopenthixol, zuclopenthixol] | – | RMW ([2]; RP-2F254 plates, 1,4-dioxane–TRIS buffer (pH 7.4), listed as zuclopenthixol): 2.459±0.130; RMW ([2]; RP-2F254 plates, acetone–TRIS buffer (pH 7.4), listed as zuclopenthixol): 2.529±0.252; RMW ([2]; RP-8F254 plates, 1,4-dioxane–TRIS buffer (pH 7.4), listed as zuclopenthixol): 1.981±0.189; RMW ([2]; RP-8F254 plates, acetone–TRIS buffer (pH 7.4), listed as zuclopenthixol): 2.206±0.207; RMW ([2]; RP-8F254 plates, acetonitrile–TRIS buffer (pH 7.4), listed as zuclopenthixol): -1.206±0.139; RMW ([2]; RP-18F254 plates, 1,4-dioxane–TRIS buffer (pH 7.4), listed as zuclopenthixol): 2.110±0.176; RMW ([2]; RP-18F254 plates, acetone–TRIS buffer (pH 7.4), listed as zuclopenthixol): 2.218±0.238; RMW ([2]; RP-18F254 plates, acetonitrile–TRIS buffer (pH 7.4), listed as zuclopenthixol): 2.411±0.454
5 | 2.890 | 3.046 | −0.405 | 2.153 | 2.690 | −0.334 | 2.342 | 2.718 | −0.361 | CN(C)CCCN1c2ccccc2Sc2ccc(C(F)(F)F)cc21 [Triflupromazine, triflupromazine] | – | RMW ([2]; RP-2F254 plates, 1,4-dioxane–TRIS buffer (pH 7.4), listed as triflupromazine): 2.890±0.232; RMW ([2]; RP-2F254 plates, acetone–TRIS buffer (pH 7.4), listed as triflupromazine): 3.046±0.271; RMW ([2]; RP-2F254 plates, acetonitrile–TRIS buffer (pH 7.4), listed as triflupromazine): -0.405±0.166; RMW ([2]; RP-8F254 plates, 1,4-dioxane–TRIS buffer (pH 7.4), listed as triflupromazine): 2.153±0.213; RMW ([2]; RP-8F254 plates, acetone–TRIS buffer (pH 7.4), listed as triflupromazine): 2.690±0.232; RMW ([2]; RP-8F254 plates, acetonitrile–TRIS buffer (pH 7.4), listed as triflupromazine): -0.334±0.019; RMW ([2]; RP-18F254 plates, 1,4-dioxane–TRIS buffer (pH 7.4), listed as triflupromazine): 2.342±0.261; RMW ([2]; RP-18F254 plates, acetone–TRIS buffer (pH 7.4), listed as triflupromazine): 2.718±0.168; RMW ([2]; RP-18F254 plates, acetonitrile–TRIS buffer (pH 7.4), listed as triflupromazine): -0.361±0.084
